The values below come from patent publication US11807668B2, “Use of citronellol in preparing preparation for promoting expression of virulence gene Toxa of Pseudomonas aeruginosa” (priority 2021, dated 2023).

For test [1], the system named is Pseudomonas aeruginosa PAO1. Kind of test: Effects of citronellol on the growth of Pseudomonas aeruginosa PAO1 (growth curve, OD600, Bioscreen C). The class given is cell-based. The protocol:
(§1) Preparation of PAO1[(Pseudomonas aeruginosa) PAO1] bacterial suspension: a culture solution of Pseudomonas aeruginosa PAO1 in an exponential growth phase was sampled, centrifuged, washed once with a PBS buffer, resuspended in PBS, and diluted to 10^8 CFU/mL to obtain the PAO1 bacterial suspension.
An LB culture medium and citronellol […] were added to test tubes respectively, and the PAO1 bacterial suspension in the exponential growth phase was inoculated to reach a total volume of 10 mL respectively. The bacterial concentration of PAO1 was each 10^6′ CFU/mL, and the concentration of citronellol was 0 (control), 0.313 μL/mL, 0.625 μL/mL, 1.25 μL/mL, and 2.5 μL/mL, respectively. Samples from several test groups were added to a honeycomb culture plate dedicated to an automatic growth curve analyzer (Bioscreen C), and 350 μL of culture solution was added to each well, with three parallel for each test group. The honeycomb culture plate was placed in the automatic growth curve analyzer, and cultured over shaking at 37° C. for 3 days, and OD600 was measured every hour. Taking OD600 as the ordinate and a culture time as the abscissa, the growth curve of PAO1 under the action of citronellol was drawn to study the effect of the citronellol on the growth of PAO1. The results were shown as in FIG. 1.

Test [2] concerns key genes of a quorum-sensing system of Pseudomonas aeruginosa and virulence genes regulated thereby (PAO1 cells). Kind of test: Effects of citronellol on the expression of key quorum-sensing genes and virulence genes regulated thereby (real-time fluorescent quantitative PCR). It counts as cell-based. The note with it: 1.25 μL/mL citronellol for 5 h. The protocol: as §1
The PAO1 bacterial suspension in a logarithmic growth phase was added to 50 mL of sterile LB liquid culture medium to reach a final concentration of 10^6 CFU/mL for the bacterial solution. Citronellol (β-citronellol) was added to reach the final concentrations of 0 (three biological replicates in the control group were named A1, A2, and A3, respectively) and 1.25 μL/mL (three biological replicates in the test groups were named B1, B2, B3). Each group was cultured at 37° C. and 180 rpm for 5 h, and centrifuged to collect bacteria, which were then quick-frozen at −80° C. for later use.
Total RNAs were extracted from the bacteria by a Trizol (Thermo Fisher Scientific) kit.
After extraction, the purity of the RNAs were detected with an ultra-micro spectrophotometer (Implen, Munich, Germany). An A260/A280 value of each RNA sample should be between 1.8 and 2.0. Reverse transcription and real-time fluorescent quantitative PCR amplification were carried out by using a PrimeScript RT Master Mix kit (Takara, Dalian, China) and an ETC 811 PCR instrument (Eastwin Life Sciences, Inc.). A q-PCR reaction system included Takara SYBR Premix Ex TaqII (Tli RNaseH Plus) (Code No. RR820A), and PCR procedures included: pre-denaturation at 95° C. for 30 s; and denaturation at 95° C. for 5 s and annealing at 60° C. for 34 s, 40 cycles. Based on 10 gene sequences published on the website of GenBank, primers for q-PCR were designed by using software Primer Premier 5.0, and at the same time, a 16S rRNA gene was used as an internal reference gene.

Turning to `CC(C)=CCCC(C)CCO` (stereo not drawn) [citronellol, β-citronellol], the “time point when the absorbance value of the culture solution differs greatly (time to maximum absorbance)” value in test [1] (0.313 μL/mL) turned out to be 26 h. For the same compound, the “time point when the absorbance value of the culture solution differs greatly (time to maximum absorbance)” value in test [1] (0.625 μL/mL) worked out at 37 h. In addition, in test [1] (1.25 μL/mL), the “time point when the absorbance value of the culture solution differs greatly (time to maximum absorbance)” value was determined as 39 h. Also, the “time point when the absorbance value of the culture solution differs greatly (time to maximum absorbance)” value in test [1] (2.5 μL/mL) was determined as 48 h. In addition, in test [1] (citronellol at 0.313, 0.625, 1.25 and 2.5 μL/mL, LB, 37° C., 3 days, OD600), the “inhibitory effect on the growth of PAO1” value is “a certain yet weak inhibitory effect”. Moreover, the “difference in lag phase and logarithmic growth phase on the PAO1 growth curves” value in test [1] (citronellol treatment groups at different concentrations (0.313-2.5 μL/mL)) is “no significant difference”. Moreover, in test [2], the “expression of signaling molecule receptor protein gene lasR” value is “significantly up-regulated”, the “expression of signaling molecule receptor protein gene pqsR” value was “significantly down-regulated”, the “expression of signaling molecule synthase gene lasI” value is “significantly up-regulated” and the “expression of signaling molecule synthase gene pgsA” value is given as “significantly down-regulated”. For the same compound, in test [2], the “transcription level of lasA” value is “up-regulated, but with a less significant change”; the “transcription level of signaling molecule receptor protein gene rhIR” value is recorded as “significantly up-regulated”; the “transcription level of signaling molecule synthase gene rhII” value is recorded as “changes a little”; the “transcription level of toxA” value is recorded as “significantly up-regulated”. Further, in test [2], the “transcription of virulence gene chiC” value is listed as “inhibited”, the “transcription of virulence gene lasB” value was “inhibited”, the “transcription of virulence gene phzM” value is listed as “inhibited” and the “transcription of virulence gene psIB” value is on record as “inhibited”.
